In US11716994B2, “Combinations of Yersinia entomophaga and pesticides or other substances” (priority 2017, dated 2023):
Read-outs that look alike come from different tables or passages of the source.

Assays:
[1] = tested on: black cutworm; conditions: flubendiamide 0.59 mg/L
Method: To produce cell free filtrates, cultures of Yersinia entomophaga grown in LB medium were centrifuged at 11,448 (g) for 10 minutes. The supernatant was decanted from the centrifuged pellet and filtered through a 0.22 μm filter. Assays were performed to determine concentrations of Yen-TC (toxin complex) using ELISA, and chitinase by measuring chitinase activity on specific substrates. […] This was done to estimate relative potency of the cell free filtrates. Insects were first pre-screened with a range of dilutions of cell free filtrates to select a concentration that provided moderate activity. […] Based on these initial screens, undiluted cell free filtrate was used for cabbage looper, fall armyworm, black cutworm, and Colorado potato beetle. […] In each of the Examples below, this is expressed as 1%.
Cabbage leaf disks were dipped in either acetone (controls and Y. entomophaga alone treatments) or in indoxacarb (Sigma 33969) at 0.53 mg/L in acetone. These were set to dry for 1 hr. […] After the cabbage disks had dried for 1 hr, a single 2nd instar black cutworm was added to each individual cabbage disk. A total of 20 insects were evaluate for each treatment. Insects were observed daily and scored as live or dead.
Cabbage leaf disks were dipped in either acetone (controls and Y. entomophaga alone treatments) or in flubendiamide (Sigma 32801) at 0.59 mg/L in acetone. These were set to dry for 1 hr. […] After the cabbage disks had dried for 1 hr, a single 2nd instar black cutworm was added to each individual cabbage disk. A total of 20 insects were evaluate for each treatment. Insects were observed daily and scored as live or dead.

[2] = tested on: fall armyworm; test: Cabbage leaf disk screening of chemical insecticide rates (flubendiamide alone), mortality; assay type: in vivo; conditions: 3rd instar
Text: Chemical insecticides were first screened against insects at a range of rates/concentrations to determine which concentrations would provide a moderate level of activity against the insects. If the chemical rates are too high, it is difficult to observe additional effects provided by the addition of either live Y. entomophaga cells or cell free filtrates of Y. entomophaga cultures.
One example is provided for flubendiamide with fall armyworm. An initial rate was selected that would fall within an expected concentration of active ingredient per volume of water, as indicated on the label of insecticide products containing that active ingredient. For flubendiamide, a concentration of 58.5 mg/L was determined based on these criteria. To create this solution, first a 10× concentration solution was made by dissolving 58.5 mg in 100 mL of acetone. Then, 1:10 dilutions of this solution were made into acetone, resulting in concentrations of the compound of 58.5, 5.85, and 0.585 mg/L. Cabbage leaf disks were dipped in either acetone (controls) or concentrations of flubendiamide at 58.5, 5.85, or 0.585 mg/L in acetone. These were set to dry for 1 hr. […] A total of 10 insects were evaluated for each treatment. Insects were observed daily and the number of dead insects was visually determined (% Mortality).

[3] = tested on: black cutworm; test: Leaf disk mortality assay, Y. entomophaga cells with chemical insecticides; conditions: for % Mort. Chem.: black cutworm
[4] = tested on: Yersinia entomophaga; test: CFU counts after exposure of Yersinia entomophaga to insecticides; assay type: cell-based; conditions: 1 hour contact
How it was run: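 Insecticides at 1× (label-rate based) and 5× or 10× amounts were dried from ethyl acetate as a coat inside tubes. Diluted LB-grown Y. entomophaga culture (1 ml) was added and held 1 hour on the bench. Then 100 μl was plated in triplicate on LB and colonies were counted after 48 hours at 25° C.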

[5] = tested on: fall armyworm; test: Leaf disk mortality assay, Y. entomophaga cells with chemical insecticides; conditions: for LT50 (95% confidence intervals) in days: 4th instar; for mortality at 0.59 µg/mL: Spodoptera frugiperda, foliar; for % Mort. Chem.: fall armyworm, Flubendiamide 0.59 mg/L
[6] = tested on: diamondback moth; test: whole plant or invertebrate; conditions: flubendiamide 0.059 mg/L; for mortality at 0.059 µg/mL: Plutella xylostella, foliar, Abbott's corrected
Text: (§1) These were set to dry for 1 hr.
as §1
These were set to dry for 1 hr. Cabbage disks were then dipped in either 1% Luria broth (LB) media solution (controls and thiacloprid alone treatments) or in 1% cell free filtrate from a culture Y. entomophaga isolate O24G3R (Y. entomophaga alone or in combination with thiacloprid treatments).

[7] = 3rd instar, flubendiamide 0.20 mg/L, isolate O23ZMJ 1×10^4 cfu/mL
[8] = 3rd instar, flubendiamide 0.20 mg/L, isolate O348UX 1×10^4 cfu/mL
[9] = 3rd instar, flubendiamide 0.59 mg/L, isolate O43NEW 1×10^4 cfu/mL

With `Cc1cc(C(F)(C(F)(F)F)C(F)(F)F)ccc1NC(=O)c1cccc(I)c1C(=O)NC(C)(C)CS(C)(=O)=O` [Flubendiamide] the “LT50 (95% confidence intervals)” value ([1]; 2nd instar black cutworm, undiluted O43NEW filtrate, Probit analysis) was 7.05 days, the “LT50 Chem.” value ([1]; Black cutworm) was 7.05 days and the “% Mort. Chem.” value ([1]; Black cutworm, 7 DAT) was 42%. For the same compound, the “% Mortality (5DAT)” value ([1]; black cutworm, undiluted O43NEW filtrate, 5 DAT, Abbott's corrected) was 0%, the “% Mortality (6DAT)” value ([1]; black cutworm, undiluted O43NEW filtrate, 6 DAT, Abbott's corrected) was 37% and the “% Mortality (7DAT)” value ([1]; black cutworm, undiluted O43NEW filtrate, 7 DAT, Abbott's corrected) was 42%. For the same compound, the “% Mortality (8DAT)” value ([1]; black cutworm, undiluted O43NEW filtrate, 8 DAT, Abbott's corrected) was 53%, the “% Mortality (9DAT)” value ([1]; black cutworm, undiluted O43NEW filtrate, 9 DAT, Abbott's corrected) was 74% and the “% Mort (4DAT)” value ([2]; flubendiamide at 0.585 mg/L) was 0%. The “% Mort (5DAT)” value ([2]; flubendiamide at 0.585 mg/L) was 10%, the “% Mort (6DAT)” value ([2]; flubendiamide at 0.585 mg/L) was 10% and the “% Mort (7DAT)” value ([2]; flubendiamide at 0.585 mg/L) was 10%. The “% Mort (8DAT)” value ([2]; flubendiamide at 0.585 mg/L) was 10%, the “% Mort (11DAT)” value ([2]; flubendiamide at 0.585 mg/L) was 20% and the “% Mort (12DAT)” value ([2]; flubendiamide at 0.585 mg/L) was 30%. For the same compound, the “LT50 (95% confidence intervals)” value ([2]; flubendiamide at 0.585 mg/L) was 14.38 days, the “% Mort (4DAT)” value ([2]; flubendiamide at 5.85 mg/L) was 10% and the “% Mort (5DAT)” value ([2]; flubendiamide at 5.85 mg/L) was 30%. For the same compound, the “% Mort (6DAT)” value ([2]; flubendiamide at 5.85 mg/L) was 90%, the “% Mort (7DAT)” value ([2]; flubendiamide at 5.85 mg/L) was 100% and the “% Mort (8DAT)” value ([2]; flubendiamide at 5.85 mg/L) was 100%. For the same compound, the “% Mort (11DAT)” value ([2]; flubendiamide at 5.85 mg/L) was 100%, the “% Mort (12DAT)” value ([2]; flubendiamide at 5.85 mg/L) was 100% and the “LT50 (95% confidence intervals)” value ([2]; flubendiamide at 5.85 mg/L) was 4.61 days. For the same compound, the “% Mort (4DAT)” value ([2]; flubendiamide at 58.5 mg/L) was 70%, the “% Mort (5DAT)” value ([2]; flubendiamide at 58.5 mg/L) was 90% and the “% Mort (6DAT)” value ([2]; flubendiamide at 58.5 mg/L) was 100%. For the same compound, the “% Mort (7DAT)” value ([2]; flubendiamide at 58.5 mg/L) was 100%, the “% Mort (8DAT)” value ([2]; flubendiamide at 58.5 mg/L) was 100% and the “% Mort (11DAT)” value ([2]; flubendiamide at 58.5 mg/L) was 100%. For the same compound, the “% Mort (12DAT)” value ([2]; flubendiamide at 58.5 mg/L) was 100%, the “LT50 (95% confidence intervals)” value ([2]; flubendiamide at 58.5 mg/L) was 2.88 days and the “% Mortality (5DAT)” value ([3]; 3rd instar black cutworm, flubendiamide 0.20 mg/L, Y. entomophaga isolate O24G3R 1 × 10^4 CFU/mL, 5 DAT, Abbott's corrected) was 31%. The “% Mortality (6DAT)” value ([3]; 3rd instar black cutworm, flubendiamide 0.20 mg/L, Y. entomophaga isolate O24G3R 1 × 10^4 CFU/mL, 6 DAT, Abbott's corrected) was 44%, the “% Mortality (7DAT)” value ([3]; 3rd instar black cutworm, flubendiamide 0.20 mg/L, Y. entomophaga isolate O24G3R 1 × 10^4 CFU/mL, 7 DAT, Abbott's corrected) was 69% and the “LT50 (95% confidence intervals) in days” value ([3]; 3rd instar black cutworm, flubendiamide 0.20 mg/L, Y. entomophaga isolate O24G3R 1 × 10^4 CFU/mL, Probit analysis) was 4.83 (4.34-5.37) days. The “% Mortality (5DAT)” value [3, 7] was 31%, the “% Mortality (6DAT)” value [3, 7] was 44% and the “% Mortality (7DAT)” value [3, 7] was 69%. For the same compound, the “LT50 (95% confidence intervals) in days” value [3, 7] was 4.83 (4.34-5.37) days, the “% Mortality (5DAT)” value [3, 8] was 31% and the “% Mortality (6DAT)” value [3, 8] was 44%. For the same compound, the “% Mortality (7DAT)” value [3, 8] was 69%, the “LT50 (95% confidence intervals) in days” value [3, 8] was 4.83 (4.34-5.37) days and the “% Mortality (4DAT)” value [3, 9] was 21%. For the same compound, the “% Mortality (5DAT)” value [3, 9] was 22%, the “% Mortality (6DAT)” value [3, 9] was 44% and the “LT50 (95% confidence intervals) in days” value [3, 9] was 4.99 (4.53-5.48) days. For the same compound, the “% Mort. Chem.” value ([3]; Flubendiamide 0.2 mg/L, 5 DAT (row with O23ZMJ)) was 31%, the “% Mort. Chem.” value ([3]; Flubendiamide 0.2 mg/L, 5 DAT (row with O24G3R)) was 31% and the “% Mort. Chem.” value ([3]; Flubendiamide 0.2 mg/L, 5 DAT (row with O348UX)) was 31%. For the same compound, the “% Mort. Chem.” value ([3]; Flubendiamide 0.59 mg/L, 6 DAT) was 44%, the “Average CFU” value ([4]; 0.5 mg insecticide) was 328 CFU and the “Average CFU” value ([4]; 5.0 mg insecticide) was 0 CFU. The “LT50 (95% confidence intervals)” value ([5]; 3rd instar, flubendiamide 0.59 mg/L, isolate O43NEW 1×10^6 cfu/mL) was 18.28 days, the “LT50 (95% confidence intervals) in days” value ([5]; flubendiamide 0.59 mg/L, isolate O23ZMJ 1×10^5 cfu/mL) was 7.46 (6.86-8.10) days and the “LT50 (95% confidence intervals) in days” value ([5]; flubendiamide 0.59 mg/L, isolate O24G3R 1×10^5 cfu/mL) was 7.46 (6.86-8.10) days. For the same compound, the “LT50 (95% confidence intervals) in days” value ([5]; flubendiamide 0.59 mg/L, isolate O348UX 1×10^5 cfu/mL) was 7.46 (6.86-8.10) days, the mortality at 0.59 µg/mL ([5]; 96 h, read-out: % Mortality (4DAT), 4th instar, flubendiamide 0.59 mg/L, isolate O23ZMJ 1×10^5 cfu/mL) was 0% and the mortality at 0.59 µg/mL ([5]; 96 h, read-out: % Mortality (4DAT), 4th instar, flubendiamide 0.59 mg/L, isolate O24G3R 1×10^5 cfu/mL) was 0%. It also gave a mortality at 0.59 µg/mL ([5]; 96 h, read-out: % Mortality (4DAT), 4th instar, flubendiamide 0.59 mg/L, isolate O348UX 1×10^5 cfu/mL) of 0%, a mortality at 0.59 µg/mL ([5]; 120 h, read-out: % Mortality (5DAT), 4th instar, flubendiamide 0.59 mg/L, isolate O348UX 1×10^5 cfu/mL) of 30% and a mortality at 0.59 µg/mL ([5]; 144 h, read-out: % Mortality (6DAT), 3rd instar, flubendiamide 0.59 mg/L, isolate O43NEW 1×10^6 cfu/mL) of 0%. For the same compound, the mortality at 0.59 µg/mL ([5]; 144 h, read-out: % Mortality (6DAT), 4th instar, flubendiamide 0.59 mg/L, isolate O24G3R 1×10^5 cfu/mL) was 26%, the mortality at 0.59 µg/mL ([5]; 144 h, read-out: % Mortality (6DAT), 4th instar, flubendiamide 0.59 mg/L, isolate O348UX 1×10^5 cfu/mL) was 26% and the mortality at 0.59 µg/mL ([5]; 168 h, read-out: % Mortality (7DAT), 3rd instar, flubendiamide 0.59 mg/L, isolate O43NEW 1×10^6 cfu/mL) was 0%. For the same compound, the mortality at 0.59 µg/mL ([5]; 264 h, read-out: % Mortality (11DAT), 3rd instar, flubendiamide 0.59 mg/L, isolate O43NEW 1×10^6 cfu/mL) was 18%, the mortality at 0.59 µg/mL ([5]; […], read-out: % Mortality (8DAT), 3rd instar, flubendiamide 0.59 mg/L, isolate O43NEW 1×10^6 cfu/mL) was 5% and the “% Mort. Chem.” value ([5]; 4 DAT) was 26%. The “% Mort. Chem.” value ([5]; 6 DAT (row with O23ZMJ)) was 0%, the “% Mort. Chem.” value ([5]; 6 DAT (row with O348UX)) was 26% and the “% Mort. Chem.” value ([5]; 7 DAT) was 0%. For the same compound, the “LT50 (95% confidence intervals)” value ([6]; 2nd instar diamondback moth, 1% O43NEW filtrate, Probit analysis) was 6.52 days, the “LT50 Chem.” value ([6]; Diamondback moth) was 6.52 days and the “% Mort. Chem.” value ([6]; Diamondback moth, 6 DAT) was 32%. It also gave a mortality at 0.059 µg/mL ([6]; 96 h, read-out: % Mortality (4DAT), diamondback moth, 1% O43NEW filtrate, 4 DAT) of 16%, a mortality at 0.059 µg/mL ([6]; 120 h, read-out: % Mortality (5DAT), diamondback moth, 1% O43NEW filtrate, 5 DAT) of 32% and a mortality at 0.059 µg/mL ([6]; 144 h, read-out: % Mortality (6DAT), diamondback moth, 1% O43NEW filtrate, 6 DAT) of 32%. It also gave a mortality at 0.059 µg/mL ([6]; 168 h, read-out: % Mortality (7DAT), diamondback moth, 1% O43NEW filtrate, 7 DAT) of 58% and a mortality at 0.059 µg/mL ([6]; 264 h, read-out: % Mortality (11DAT), diamondback moth, 1% O43NEW filtrate, 11 DAT) of 67%.
